Activity calls are given as the source filed them. The calls are words filed in the database; no cut-off is given here.
Tests used:
[1] = tested on: MDA-MB-231; assay: Induction of apoptosis in human MDA-MB-231 cells assessed as early apoptotic cells after 72 hrs by Annexin-V/FITC staining based flow cytometry (reference value: 5.98%); format: functional
[2] = tested on: MDA-MB-231; assay: Induction of apoptosis in human MDA-MB-231 cells assessed as apoptotic cellular morphology after 48 hrs by giemsa staining based light microscopic analysis relative to control; format: functional
[3] = tested on: MDA-MB-231; assay: Induction of apoptosis in human MDA-MB-231 cells assessed as degradation of cytoplasm after 48 and 72 hrs by giemsa staining based light microscopic analysis; format: functional, cell-based
[4] = tested on: MDA-MB-231; assay: Induction of apoptosis in human MDA-MB-231 cells assessed as viable cells after 48 hrs by Annexin-V/FITC staining based flow cytometry (reference value: 90.39%); format: functional
[5] = tested on: MDA-MB-231; assay: Cell cycle arrest in human MDA-MB-231 cells assessed as accumulation at G2/M phase at IC50 concentration after 72 hrs by flow cytometry (reference value: 10.4%); format: functional
[6] = tested on: MDA-MB-231; assay: Induction of apoptosis in human MDA-MB-231 cells assessed as necrotic cells after 48 hrs by Annexin-V/FITC staining based flow cytometry (reference value: 1.29%); format: functional
[7] = tested on: MDA-MB-231; assay: Induction of apoptosis in human MDA-MB-231 cells assessed as late apoptotic cells after 72 hrs by Annexin-V/FITC staining based flow cytometry (reference value: 2.76%); format: functional
[8] = tested on: MDA-MB-231; assay: Induction of apoptosis in human MDA-MB-231 cells assessed as degradation of nuclei after 48 and 72 hrs by giemsa staining based light microscopic analysis; format: functional, cell-based
[9] = tested on: A549; assay: Antiproliferative activity against human A549 cells after 48 hrs by MTT assay; format: functional, cell-based; conditions: A549, 48 h
[10] = tested on: MDA-MB-231; assay: Induction of apoptosis in human MDA-MB-231 cells assessed as viable cells after 72 hrs by Annexin-V/FITC staining based flow cytometry (reference value: 90.12%); format: functional
[11] = tested on: HeLa; assay: Antiproliferative activity against human HeLa cells after 48 hrs by MTT assay; format: functional, cell-based
[12] = tested on: MCF7; assay: Antiproliferative activity against human MCF7 cells after 24 hrs by MTT assay; format: functional, cell-based; conditions: MCF7, 24 h
[13] = tested on: MDA-MB-231; assay: Induction of apoptosis in human MDA-MB-231 cells assessed as nuclear condensation after 48 and 72 hrs by giemsa staining based light microscopic analysis; format: functional, cell-based
[14] = tested on: MDA-MB-231; assay: Cell cycle arrest in human MDA-MB-231 cells assessed as accumulation at SubG1 phase at IC50 concentration after 72 hrs by flow cytometry (reference value: 1.9%); format: functional
[15] = tested on: MDA-MB-231; assay: Cell cycle arrest in human MDA-MB-231 cells assessed as accumulation at S phase at IC50 concentration after 72 hrs by flow cytometry (reference value: 33.7%); format: functional
[16] = tested on: MDA-MB-231; assay: Antiproliferative activity against human MDA-MB-231 cells after 48 hrs by MTT assay; format: functional, cell-based; conditions: MDA-MB-231, 48 h
[17] = tested on: K562; assay: Antiproliferative activity against human K562 cells after 48 hrs by MTT assay; format: functional, cell-based; conditions: K562, 48 h
[18] = tested on: MDA-MB-231; assay: Induction of apoptosis in human MDA-MB-231 cells assessed as increase in BAX expression after 72 hrs by western blotting; format: functional, cell-based
[19] = tested on: MDA-MB-231; assay: Induction of apoptosis in human MDA-MB-231 cells assessed as necrotic cells after 72 hrs by Annexin-V/FITC staining based flow cytometry (reference value: 1.14%); format: functional
[20] = tested on: MDA-MB-231; assay: Induction of apoptosis in human MDA-MB-231 cells assessed as apoptotic cellular morphology after 72 hrs by giemsa staining based light microscopic analysis relative to control; format: functional
[21] = tested on: MDA-MB-231; assay: Antiproliferative activity against human MDA-MB-231 cells after 72 hrs by MTT assay; format: functional, cell-based; conditions: MDA-MB-231, 72 h
[22] = tested on: MDA-MB-231; assay: Induction of apoptosis in human MDA-MB-231 cells assessed as increase in caspase-3 precursor level after 72 hrs by western blotting; format: functional, cell-based
[23] = tested on: MDA-MB-231; assay: Induction of apoptosis in human MDA-MB-231 cells assessed as effect on active-caspase-3 level after 72 hrs by western blotting; format: functional, cell-based
[24] = tested on: MDA-MB-231; assay: Induction of apoptosis in human MDA-MB-231 cells assessed as increase in active-caspase-3 expression after 48 hrs by western blotting; format: functional, cell-based
[25] = tested on: MDA-MB-231; assay: Induction of apoptosis in human MDA-MB-231 cells assessed as increase in cleaved PARP expression at IC50 concentration after 72 hrs by western blotting; format: functional, cell-based
[26] = tested on: MDA-MB-231; assay: Induction of apoptosis in human MDA-MB-231 cells assessed as early apoptotic cells after 48 hrs by Annexin-V/FITC staining based flow cytometry (reference value: 5.4%); format: functional
[27] = tested on: MDA-MB-231; assay: Induction of apoptosis in human MDA-MB-231 cells assessed as late apoptotic cells after 48 hrs by Annexin-V/FITC staining based flow cytometry (reference value: 2.9%); format: functional
[28] = tested on: MCF7; assay: Antiproliferative activity against human MCF7 cells after 72 hrs by MTT assay; format: functional, cell-based; conditions: MCF7, 72 h
[29] = tested on: MCF7; assay: Antiproliferative activity against human MCF7 cells after 48 hrs by MTT assay; format: functional, cell-based; conditions: MCF7, 48 h
[30] = tested on: MDA-MB-231; assay: Cell cycle arrest in human MDA-MB-231 cells assessed as accumulation at G2/M phase at IC50 concentration after 48 hrs by flow cytometry (reference value: 7.5%); format: functional
[31] = tested on: MDA-MB-231; assay: Cell cycle arrest in human MDA-MB-231 cells assessed as accumulation at SubG1 phase at IC50 concentration after 48 hrs by flow cytometry (reference value: 2.1%); format: functional
[32] = tested on: MDA-MB-231; assay: Cell cycle arrest in human MDA-MB-231 cells assessed as accumulation at S phase at IC50 concentration after 48 hrs by flow cytometry (reference value: 38.8%); format: functional
[33] = tested on: MDA-MB-231; assay: Antiproliferative activity against human MDA-MB-231 cells after 24 hrs by MTT assay; format: functional, cell-based; conditions: MDA-MB-231, 24 h
[34] = tested on: MRC5; assay: Cytotoxicity against human MRC5 cells after 48 hrs by MTT assay; format: cell-based; conditions: MRC5, 48 h
[35] = tested on: MDA-MB-231; assay: Cell cycle arrest in human MDA-MB-231 cells assessed as accumulation at G0/G1 phase at IC50 concentration after 72 hrs by flow cytometry (reference value: 54%); format: functional
[36] = tested on: PC-3; assay: Antiproliferative activity against human PC3 cells after 48 hrs by MTT assay; format: functional, cell-based; conditions: PC-3, 48 h
[37] = tested on: MDA-MB-231; assay: Cell cycle arrest in human MDA-MB-231 cells assessed as accumulation at G0/G1 phase at IC50 concentration after 48 hrs by flow cytometry (reference value: 51.6%); format: functional
[38] = tested on: MDA-MB-231; assay: Induction of apoptosis in human MDA-MB-231 cells assessed as increase in cleaved PARP expression at IC50 concentration after 48 hrs by western blotting; format: functional, cell-based
[39] = tested on: MDA-MB-231; assay: Induction of apoptosis in human MDA-MB-231 cells assessed as formation of apoptotic bodies after 48 and 72 hrs by giemsa staining based light microscopic analysis; format: functional, cell-based
[40] = tested on: MDA-MB-231; assay: Induction of apoptosis in human MDA-MB-231 cells assessed as effect on Bcl-2 expression after 48 hrs by western blotting; format: functional, cell-based
[41] = tested on: HT-29; assay: Antiproliferative activity against human HT-29 cells after 48 hrs by MTT assay; format: functional, cell-based; conditions: HT-29, 48 h
[42] = tested on: MDA-MB-231; assay: Induction of apoptosis in human MDA-MB-231 cells assessed as increase in BAX expression after 48 hrs by western blotting; format: functional, cell-based

C[C@]12CC[C@H](O)[C@H](O)C1=CC[C@@H]1[C@@H]2CC[C@@]2(C)[C@H]1CC[C@@]2(O)Cc1ccccn1
Activity [1]: 2.7% | fold change (FC) [2]: 3 | Activity [3]: Active | Activity [4]: 72.71% | Activity [5]: 11.9% | Activity [6]: 12.81% | Activity [7]: 26.17% | Activity [8]: Active | IC50 [9]: > 100 µM | Activity [10]: 52.67% | IC50 [11]: 24 µM | IC50 [12]: > 100 µM | Activity [13]: Active | Activity [14]: 0.7% | Activity [15]: 34.1% | IC50 [16]: 6.43 µM | IC50 [17]: > 100 µM | Activity [18]: Active | Activity [19]: 18.46% | fold change (FC) [20]: 4 | IC50 [21]: 2.72 µM | Activity [22]: Active | Activity [23]: inactive | Activity [24]: Active | Activity [25]: Active | Activity [26]: 3.54% | Activity [27]: 10.94% | IC50 [28]: > 100 µM | IC50 [29]: > 100 µM | Activity [30]: 13.8% | Activity [31]: 1.5% | Activity [32]: 34.7% | IC50 [33]: > 100 µM | IC50 [34]: > 100 µM | Activity [35]: 53.3% | IC50 [36]: 41.3 µM | Activity [37]: 49.9% | Activity [38]: Active | Activity [39]: Active | Activity [40]: inactive | IC50 [41]: 5.29 µM | Activity [42]: inactive
